# In patent US20130338154A1, “MGLUR4 ALLOSTERIC POTENTIATORS, COMPOSITIONS, AND METHODS OF TREATING NEUROLOGICAL DYSFUNCTION” (Vanderbilt University, priority 2009, published 2013):
# Columns and labels:
# mGluR4 [1] = target: T1, mGluR4 (Homo sapiens, UniProt Q14833); assay: mGluR4 potentiation assay (Table I): response to EC20 agonist in presence of compound; type: cell-based; conditions: for EC50: potentiation of mGluR4 agonist response
# Target sequence in this assay (Q14833 whole entry): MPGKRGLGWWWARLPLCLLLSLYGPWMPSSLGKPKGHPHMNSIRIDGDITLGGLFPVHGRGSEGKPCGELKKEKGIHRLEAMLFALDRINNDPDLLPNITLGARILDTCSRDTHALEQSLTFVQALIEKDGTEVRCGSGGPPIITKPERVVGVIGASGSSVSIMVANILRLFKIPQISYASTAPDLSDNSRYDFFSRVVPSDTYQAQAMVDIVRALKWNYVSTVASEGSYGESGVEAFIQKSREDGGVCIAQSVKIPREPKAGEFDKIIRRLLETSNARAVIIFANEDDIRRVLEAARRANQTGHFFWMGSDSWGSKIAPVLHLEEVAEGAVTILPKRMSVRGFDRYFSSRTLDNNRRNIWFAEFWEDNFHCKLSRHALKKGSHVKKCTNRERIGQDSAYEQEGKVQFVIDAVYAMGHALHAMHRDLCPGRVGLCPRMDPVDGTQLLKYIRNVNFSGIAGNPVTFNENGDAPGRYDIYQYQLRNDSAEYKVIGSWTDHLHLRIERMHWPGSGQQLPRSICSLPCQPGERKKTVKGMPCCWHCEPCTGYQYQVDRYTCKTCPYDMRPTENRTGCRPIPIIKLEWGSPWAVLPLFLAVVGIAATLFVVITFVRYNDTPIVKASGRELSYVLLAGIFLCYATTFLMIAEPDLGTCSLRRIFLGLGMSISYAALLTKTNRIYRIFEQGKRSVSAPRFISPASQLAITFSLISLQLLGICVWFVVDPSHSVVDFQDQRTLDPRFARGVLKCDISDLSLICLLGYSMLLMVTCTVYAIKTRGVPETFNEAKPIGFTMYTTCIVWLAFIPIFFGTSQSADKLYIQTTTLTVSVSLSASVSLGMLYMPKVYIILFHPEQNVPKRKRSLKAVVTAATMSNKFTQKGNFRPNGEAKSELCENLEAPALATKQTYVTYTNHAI
# mGluR4 [2] = target: T1, mGluR4; assay: human mGluR4 potentiation in transfected CHO cells, Ca2+-sensitive fluorescent dye; type: cell-based; set-up: expressed in transfected cells; host or cells: CHO cells; conditions: unit inferred, read-out: hEC50
# Target sequence in this assay (Q14833 33-912): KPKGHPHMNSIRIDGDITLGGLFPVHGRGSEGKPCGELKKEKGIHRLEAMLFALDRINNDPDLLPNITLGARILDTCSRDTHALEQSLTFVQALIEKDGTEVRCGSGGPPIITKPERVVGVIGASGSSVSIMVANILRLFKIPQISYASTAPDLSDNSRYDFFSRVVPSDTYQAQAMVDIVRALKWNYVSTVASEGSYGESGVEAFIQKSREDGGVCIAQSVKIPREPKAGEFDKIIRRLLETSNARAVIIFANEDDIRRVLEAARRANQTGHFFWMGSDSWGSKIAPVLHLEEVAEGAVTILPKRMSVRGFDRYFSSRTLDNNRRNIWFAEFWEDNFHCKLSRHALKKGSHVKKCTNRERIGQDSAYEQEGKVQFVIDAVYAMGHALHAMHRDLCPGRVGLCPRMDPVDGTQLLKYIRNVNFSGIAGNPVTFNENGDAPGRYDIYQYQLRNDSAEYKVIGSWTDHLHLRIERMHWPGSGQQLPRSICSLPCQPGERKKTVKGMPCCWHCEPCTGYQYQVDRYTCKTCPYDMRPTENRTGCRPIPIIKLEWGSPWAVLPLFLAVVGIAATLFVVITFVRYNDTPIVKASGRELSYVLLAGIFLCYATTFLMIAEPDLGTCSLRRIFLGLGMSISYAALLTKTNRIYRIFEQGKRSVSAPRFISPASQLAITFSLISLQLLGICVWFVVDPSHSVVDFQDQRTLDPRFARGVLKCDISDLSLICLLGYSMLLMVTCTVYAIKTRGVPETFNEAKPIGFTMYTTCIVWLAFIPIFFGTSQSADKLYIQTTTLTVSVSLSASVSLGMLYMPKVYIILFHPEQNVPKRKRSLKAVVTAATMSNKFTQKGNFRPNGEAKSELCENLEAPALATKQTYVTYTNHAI
smiles,measurement,setting,value
O=C(Nc1ccn(S(=O)(=O)c2ccc(F)cc2)c1)c1ccccn1 [Example 19],% Glu Max,mGluR4 [1]; maximum extent of potentiation,137%
same,EC50,mGluR4 [1],280 nM
O=C(Nc1ccn(S(=O)(=O)Cc2cccc(F)c2)c1)c1ccccn1 [Example 24],% Glu Max,mGluR4 [1]; maximum extent of potentiation,140%
same,EC50,mGluR4 [1],587 nM
"O=C(Nc1ccn(S(=O)(=O)c2ccc3c(c2)CCO3)c1)c1ccccn1 [Example 145, N-(1-((2,3-dihydrobenzoruran-5-yl)sulfonyl)-1H-pyrrol-3-yl)picolinamide]",EC50,mGluR4 [2],78.4 nM
O=C(Nc1ccn(S(=O)(=O)Cc2ccccc2Cl)c1)c1ccccn1 [Example 30],% Glu Max,mGluR4 [1]; maximum extent of potentiation,163%
same,EC50,mGluR4 [1],83 nM
O=C(Nc1ccn(S(=O)(=O)c2cccc(-c3ccccc3)c2)c1)c1ccccn1 [Example 12],% Glu Max,mGluR4 [1]; maximum extent of potentiation,122%
same,EC50,mGluR4 [1],3310 nM
"CC(c1ccccc1F)S(=O)(=O)n1ccc(NC(=O)c2ccccn2)c1 (stereo not shown) [Example 99, N-(1-((1-(2-fluorophenyl)ethyl)sulfonyl)-1H-pyrrol-3-yl)picolinamidc]",EC50,mGluR4 [2],396 nM
O=C(Nc1ccn(S(=O)(=O)Cc2cc(Cl)cc(Cl)c2)c1)c1ccccn1 [Example 35],% Glu Max,mGluR4 [1]; maximum extent of potentiation,156%
same,EC50,mGluR4 [1],3830 nM
O=C(Nc1ccn(S(=O)(=O)Cc2ccc(F)cc2F)c1)c1ccccn1 [Example 32],% Glu Max,mGluR4 [1]; maximum extent of potentiation,159%
same,EC50,mGluR4 [1],188 nM
CC(C)Cc1ccc(S(=O)(=O)n2ccc(NC(=O)c3ccccn3)c2)cc1 [Example 17],% Glu Max,mGluR4 [1]; maximum extent of potentiation,30%
same,EC50,mGluR4 [1],258 nM
O=C(Nc1ccn(S(=O)(=O)c2ccc(Cl)cc2)c1)c1ccccn1 [Example 21],% Glu Max,mGluR4 [1]; maximum extent of potentiation,215%
same,EC50,mGluR4 [1],655 nM
Cc1cccc(CS(=O)(=O)n2ccc(NC(=O)c3ccccn3)c2)c1 [Example 38],% Glu Max,mGluR4 [1]; maximum extent of potentiation,289%
same,EC50,mGluR4 [1],1450 nM
O=C(Nc1ccn(S(=O)(=O)c2ccc(OC(F)F)cc2)c1)c1ccccn1 [Example 16],% Glu Max,mGluR4 [1]; maximum extent of potentiation,151%
same,EC50,mGluR4 [1],162 nM
O=C(Nc1ccn(S(=O)(=O)C2CCCCC2)c1)c1ccccn1 [Example 22],% Glu Max,mGluR4 [1]; maximum extent of potentiation,189%
same,EC50,mGluR4 [1],1940 nM
Cc1ccc(S(=O)(=O)n2ccc(NC(=O)c3ccccn3)c2)cc1 [Example 20],% Glu Max,mGluR4 [1]; maximum extent of potentiation,188%
same,EC50,mGluR4 [1],57 nM
O=C(Nc1ccn(S(=O)(=O)Cc2cccc(Cl)c2)c1)c1ccccn1 [Example 25],% Glu Max,mGluR4 [1]; maximum extent of potentiation,132%
same,EC50,mGluR4 [1],839 nM
O=C(Nc1ccn(S(=O)(=O)Cc2ccc(Cl)c(Cl)c2)c1)c1ccccn1 [Example 34],% Glu Max,mGluR4 [1]; maximum extent of potentiation,159%
same,EC50,mGluR4 [1],828 nM
"Cc1ccc(S(=O)(=O)n2ccc(NC(=O)c3nccs3)c2)cc1 [Example 51, N-(1-tosyl-1H-pyrrol-3-yl)thiazole-2-carboxamidc]",EC50,mGluR4 [2],348 nM
"O=C(Nc1ccn(S(=O)(=O)c2ccc(C(F)(F)F)nc2)c1)c1ccccn1 [Example 120, N-(1-((6-(trifluoromethyl)pyricIin-3-yl)sulfonyl)-1H-pyrrol-3-yl)picolinamide]",EC50,mGluR4 [2],666 nM
O=C(Nc1ccn(S(=O)(=O)c2ccccc2OC(F)(F)F)c1)c1ccccn1 [Example 7],% Glu Max,mGluR4 [1]; maximum extent of potentiation,90%
same,EC50,mGluR4 [1],203 nM
O=C(Nc1ccn(S(=O)(=O)c2ccc(C(F)(F)F)cc2)c1)c1ccccn1 [Example 23],% Glu Max,mGluR4 [1]; maximum extent of potentiation,85%
same,EC50,mGluR4 [1],413 nM
O=C(Nc1ccn(S(=O)(=O)c2ccc(OC(F)(F)F)cc2)c1)c1ccccn1 [Example 18],% Glu Max,mGluR4 [1]; maximum extent of potentiation,93%
same,EC50,mGluR4 [1],546 nM
Cc1ccccc1CS(=O)(=O)n1ccc(NC(=O)c2ccccn2)c1 [Example 28],% Glu Max,mGluR4 [1]; maximum extent of potentiation,164%
same,EC50,mGluR4 [1],1130 nM
"O=C(Nc1ccn(S(=O)(=O)c2ccccc2Cl)c1)c1ccccc1 [Example 46, N-(1-(2-chlorophenylsulfonyl)-1H-pyrrol-3-yl)benzamide]",Emax,"mGluR4 [1]; maximum extent of potentiation, read-out: % Glu Max",85%
O=C(Nc1ccn(S(=O)(=O)c2cccc(Cl)c2)c1)c1ccccn1 [Example 14],% Glu Max,mGluR4 [1]; maximum extent of potentiation,139%
same,EC50,mGluR4 [1],106 nM
O=C(Nc1ccn(S(=O)(=O)Cc2cccc(C(F)(F)F)c2)c1)c1ccccn1 [Example 27],% Glu Max,mGluR4 [1]; maximum extent of potentiation,117%
same,EC50,mGluR4 [1],1730 nM
Cc1cccc(S(=O)(=O)n2ccc(NC(=O)c3ccccn3)c2)c1 [Example 15],% Glu Max,mGluR4 [1]; maximum extent of potentiation,175%
same,EC50,mGluR4 [1],90 nM
"Cc1cc(S(=O)(=O)n2ccc(NC(=O)c3ccccn3)c2)cnc1Cl [Example 119, N-(1-((6-chloro-5-metliylpyridin-3-yl)sulfonyl)-1H-pyrrol-3-yl)picolinamide]",EC50,mGluR4 [2],249 nM
O=C(Nc1ccn(S(=O)(=O)Cc2ccccc2F)c1)c1ccccn1 [Example 29],% Glu Max,mGluR4 [1]; maximum extent of potentiation,161%
same,EC50,mGluR4 [1],473 nM
"Cc1ccc(S(=O)(=O)n2ccc(NC(=O)c3ccccn3)c2)o1 [Example 142, N-(1-((5-methylruran-2-yl)sulfonyl)-1H-pyrrol-3-yl)picolinamide]",EC50,mGluR4 [2],256 nM
"Cc1ccc(S(=O)(=O)n2ccc(NC(=O)c3ccco3)c2)cc1 [Example 165, N-(1-tosyl-1H-pyrrol-3-yl)furan-2-carboxamidc]",EC50,mGluR4 [2],854 nM
N#Cc1cccc(S(=O)(=O)n2ccc(NC(=O)c3ccccn3)c2)c1 [Example 13],% Glu Max,mGluR4 [1]; maximum extent of potentiation,104%
same,EC50,mGluR4 [1],282 nM
"Cc1ccnc(S(=O)(=O)n2ccc(NC(=O)c3ccccn3)c2)c1 [Example 117, N-(1-((4-mcthylpyridin-2-yl)sulfonyl)-1H-pyrrol-3-yl)picolinamide]",EC50,mGluR4 [2],1290 nM
O=C(Nc1ccn(S(=O)(=O)Cc2ccc(C(F)(F)F)cc2)c1)c1ccccn1 [Example 37],% Glu Max,mGluR4 [1]; maximum extent of potentiation,158%
same,EC50,mGluR4 [1],154 nM
Cc1ccc(CS(=O)(=O)n2ccc(NC(=O)c3ccccn3)c2)cc1C [Example 33],% Glu Max,mGluR4 [1]; maximum extent of potentiation,178%
same,EC50,mGluR4 [1],215 nM
O=C(Nc1ccn(S(=O)(=O)Cc2ccc(Cl)cc2Cl)c1)c1ccccn1 [Example 31],% Glu Max,mGluR4 [1]; maximum extent of potentiation,206%
same,EC50,mGluR4 [1],445 nM
